Assay results from US10745390B2, “Small molecule activators of mitochondrial function” (THE TRUSTEES OF THE UNIVERSITY OF PENNSYLVANIA, priority 2008, dated 2020).

Tests used:
yeast lacking Yfh1p = test: Yeast-based screening assay (WST-1 tetrazolium dye reduction); format: cell-based; conditions: glycerol medium, 72 h, OD450, single dose 50 uM, activity threshold >1.32 fold increase in absorbance
Procedure: The aim of this assay is to identify compounds that can improve mitochondrial function in yeast lacking Yfh1p grown in a non-fermentable growth medium. The yeast Yfh1p expression construct used in this study has a galactose-inducible, glucose-repressible promoter driving Yfh1p production. Yfh1p is expressed when yeast are grown in the presence of galactose and inhibited when they are grown in the presence of dextrose. Growing the cells in the presence of dextrose not only turns off the expression of Yfh1p, but also leads to the depletion of Yfh1p in the cells. Transferring the Yfh1p-depleted cells into a non-fermentable, glycerol-based medium dictates that the yeast must use an oxidative pathway. […] Cleavage of the tetrazolium salt to formazan is accompanied by an increase in absorbance at 450 nm.
Compounds in the single dose assay were evaluated on the basis of Fold Induction compared to yeast only, and those in the dose response assay on percent activation, i.e. percent induction of tetrazolium dye reduction in yeast grown in a non-fermentable growth medium. Percent activation was calculated using the optical density in control wells with cells treated with positive control compound (25 uM methyl 4-(1, 2, 4, 5-tetraazin-3-yl) phenyl ether (MLSMR External ID: MLS000550612; PubChem SID: 14718875)) as full induction of tetrazolium dye reduction (100% activation), and wells with cells grown in medium without methyl 4-(1, 2, 4, 5-tetraazin-3-yl) phenyl ether as an indicator of 0% activation. Library compounds were screened at 50 uM. From the 50 uM single dose assay, 1250 compounds with significant tetrazolium dye reduction were selected for confirmatory dose response assay. These compounds were screened in a 10-point dilution series ranging from 0.01 to 100 uM.
The following screening protocol was followed. Yeast cells containing an inducible/repressible promoter for Yfh1p expression were cultured in induction medium (Yfh1 on) with Galactose as the carbon source, and then shifted to repression medium (Yfh1 off) with Dextrose as the carbon source (for 24 hours) to allow Yfh1 protein to decay. The cells were then incubated for 24 h in respiration-only medium (Yfh1 off) with Glycerol as the carbon source to allow cells to equilibrate, and then plated in 384 well plates in respiration-only medium (Yfh1 off) with glycerol as carbon source, in the presence of Tetrazolium dye (WST-1) for 72 hours.
Preparation of Assay • 1. Cells were streaked out on a YPGal agar plate and grown inverted for 3 days at 30 C. • 2. A colony was selected and 10 mL of YPGal medium inoculated and grown over night at 30 C with shaking. • 3. The cells were counted on a coulter counter, centrifuged at 1400 g for 5 min in dextrose (CSMM-D) medium, washed twice to remove all galactose, and resuspended in CSMM-D medium at a cell density of 2 to the power of 5 cells/mL. • 4. Frozen stocks were prepared at this point, in dextrose medium. For these dextrose stock solutions, enough culture was grown in dextrose media over night with shaking at 30 C, to get a cell density of ˜2 to the power of 7 cells/mL. The cells were centrifuged at 1400 g for 5 min and the pellet resuspended in glycerol freezing medium at a cell density of 2 to the power of 8 cells/mL. • 5. The day before the screen, frozen culture was thawed at room temperature and resuspended in glycerol (CSMM-G) medium. • 6. The culture was grown over night at 30 C with shaking and the cells counted and diluted in CSMM-G medium for a final cell density of 4 to the power of 6 cells/mL. • 7. Methyl 4-(1, 2, 4, 5-tetraazin-3-yl) phenyl ether (positive control), CSMM-G medium alone (negative control) and compounds were plated with DMSO at 200× concentration (final concentrations: methyl 4-(1, 2, 4, 5-tetraazin-3-yl) phenyl ether 25 uM, compounds 50 uM, DMSO 0.5%) in 384-well plates: 125 nL/well. For the dose response assay, compounds were plated in a 10-point dilution series ranging from 0.01 to 100 uM, at 1% DMSO. • 8. […]

I154F FA cells = test: I154F frataxin point-mutation model, rescue from FAC and/or BSO; format: cell-based, murine
Source text: 2. Preliminary testing in the I154F frataxin point-mutation model determines whether test compounds can rescue I154F FA cells from lethal concentrations of FAC and/or BSO. Among the mammalian-cell models that have, or recapitulate, the genetic defects underlying FA, by far the most robust (and best validated) is the I154F murine frataxin point-mutation model developed by Puccio and colleagues (Calmels, N. et al.), the first cellular model based on frataxin missense mutations that reproduces spontaneously the defects associated with Friedreich ataxia (PLoS One 4, e6379 (2009)). […] This model is also extremely stable, with phenotypes unchanged after months of continuous culture. In contrast, the mutations in available primary human FA fibroblasts are GAA repeat expansions in the first intron of the FXN gene; occasional cells in which these expansions contract have a growth advantage and take over the culture, diluting the phenotype and increasing variance in various measures of compound efficacy.
In another screen, testing was conducted in the I154F point-mutation model as described above, to determine whether test compounds could rescue I154F FA cells from lethal or sublethal concentrations of FAC and/or BSO. Effective in this screen were the following compounds: N-[(5-chloro-8-hydroxyquinolin-7-yl)-thiophen-2-ylmethyl]-3-phenylpropanamide, N-[(5-chloro-8-hydroxyquinolin-7-yl)-thiophen-2-ylmethyl]pentanamide, N-[(5-chloro-8-hydroxyquinolin-7-yl)-furan-2-ylmethyl]-3-phenylpropanamide, N-[(5-chloro-8-hydroxyquinolin-7-yl)-furan-2-ylmethyl]propanamide, N-[(5-chloro-8-hydroxyquinolin-7-yl)-furan-2-ylmethyl]pentanamide, N-[(5-chloro-8-hydroxyquinolin-7-yl)-tolyl]-3-phenylpropanamide, N-[(5-chloro-8-hydroxyquinolin-7-yl)-(3-methoxyphenyl)methyl]-3-phenylpropanamide, N-[(5-chloro-8-hydroxyquinolin-7-yl)-(4-dimethylaminophenyl)methyl]-3-phenylpropanamide, N-[(5-chloro-8-hydroxyquinolin-7-yl)-(4-chlorophenyl)methyl]-3-phenylpropanamide, N-[(5-chloro-8-hydroxyquinolin-7-yl)-(3-chlorophenyl)methyl]-3-phenylpropanamide, N-[(5-chloro-8-hydroxyquinolin-7-yl)-(2-chlorophenyl)methyl]-3-phenylpropanamide, N-[(5-chloro-8-hydroxyquinolin-7-yl)-(3,4-dimethoxyphenyl)methyl]-3-phenylpropanamide, N-[(5-chloro-8-hydroxyquinolin-7-yl)-(2,4-dimethoxyphenyl)methyl]-3-phenylpropanamide, N-[(5-chloro-8-hydroxyquinolin-7-yl)-(3,4,5-trimethoxyphenyl)methyl]-3-phenylpropanamide, N-[(5-chloro-8-hydroxyquinolin-7-yl)-(2-bromophenyl)methyl]-3-phenylpropanamide, N-[(5-chloro-8-hydroxyquinolin-7-yl)-p-tolyl-methyl]-3-phenylpropanamide, N-[(5-chloro-8-hydroxyquinolin-7-yl)-(2-hydroxyphenyl)methyl]-3-phenylpropanamide (1a-18), and N-[(5-chloro-8-hydroxyquinolin-7-yl)-(4-methoxyphenyl)methyl]-3-phenylpropanamide.

[1] = system: superoxide dismutase activity; test: Superoxide dismutase activity in vitro after metal pre-loading (Fluka assay kit); format: biochemical
Source text: 3. Evaluate the catalytic activity of the compound by pre-loading with manganese, iron, or other metal and assaying superoxide dismutase and/or catalase activity in vitro. This assay helps identify a possible mechanism of action that would help explain the unusual combination of high potency, and high specificity, of the compounds embodied herein. […] Yet compounds that act catalytically are usually relatively non-specific, whereas the compounds embodied herein were confirmed active in only one assay (the FA yeast assay mentioned above) of 168 high-throughput screening assays in which they have been tested to date. With no duty to disclose the mechanism of action of the compounds embodied here and without being bound based thereon, it is hypothesized that the compounds embodied herein are chelating iron within cells and acting as superoxide dismutase (SOD) and/or catalase mimetics.
In a further evaluation, the catalytic activity of the test compound was measured by pre-loading with manganese, or various forms of iron, or other metals, and assaying superoxide dismutase activity in vitro using an assay kit from Fluka. Control levels of inhibition of SOD activity was about 4.5%, and 300 nM compound N-[(5-chloro-8-hydroxyquinolin-7-yl)-thiophen-2-ylmethyl]-3-phenylpropanamide pre-loaded with manganese about 5%. However, preloading with iron acetate increased inhibition to about 40%.

complex I = test: Complex I inhibition in SH-SY5Y cells; format: cell-based
Procedure: Step 5. Screening in mammalian cells treated with inhibitors of specific complexes of the ETC. […] Antimycin A and oligomycin kill SH-SY5Y cells in the high nM range, as assessed by LDH leakage and DNA fragmentation.
Further screening in mammalian cells treated with inhibitors of specific complexes of the ETC is conducted. […] Antimycin A and oligomycin kill SH-SY5Y cells in the high nM range, as assessed by LDH leakage and DNA fragmentation.

SH-SY5Y cells = test: Killing of SH-SY5Y cells by ETC inhibitors; format: cell-based; conditions: for concentration range killing SH-SY5Y cells: LDH leakage and DNA fragmentation
Procedure: Step 5. Screening in mammalian cells treated with inhibitors of specific complexes of the ETC.
Further screening in mammalian cells treated with inhibitors of specific complexes of the ETC is conducted.

Compound: O=C(CCc1ccccc1)NC(c1cccs1)c1cc(Cl)c2cccnc2c1O (stereo not shown) [N-[(5-chloro-8-hydroxyquinolin-7-yl)-thiophen-2-ylmethyl]-3-phenylpropanamide]
- active in the screen (tetrazolium dye reduction) (yeast lacking Yfh1p): active
- rescue of I154F FA cells from lethal or sublethal concentrations of FAC and/or BSO (I154F FA cells): Effective
- inhibition of SOD activity ([1]; 300 nM compound pre-loaded with manganese, control about 4.5%): about 5%
- increase in inhibition by iron ([1]; iron acetate versus manganese pre-loading): eight-fold
- inhibition of SOD activity ([1]; preloading with iron acetate): about 40%

Compound: CCCCC(=O)NC(c1cccs1)c1cc(Cl)c2cccnc2c1O (stereo not shown) [N-[(5-chloro-8-hydroxyquinolin-7-yl)-thiophen-2-ylmethyl]pentanamide]
- active in the screen (tetrazolium dye reduction) (yeast lacking Yfh1p): active
- rescue of I154F FA cells from lethal or sublethal concentrations of FAC and/or BSO (I154F FA cells): Effective

Compound: CCCCC(=O)NC(c1ccccc1OC)c1ccc2cccnc2c1O (stereo not shown) [N-[(8-hydroxyquinolin-7-yl)-(2-methoxyphenyl)methyl]pentanamide]
- active in the screen (tetrazolium dye reduction) (yeast lacking Yfh1p): active

Compound: CC(=O)NC(c1ccc(C)cc1)c1cc([N+](=O)[O-])c2cccnc2c1O (stereo not shown) [N-[{8-hydroxy-5-nitro-7-quinolinyl}(4-methylphenyl)methyl]acetamide]
- active in the screen (tetrazolium dye reduction) (yeast lacking Yfh1p): active

Compound: C=C(C)[C@H]1Cc2c(ccc3c2O[C@@H]2COc4cc(OC)c(OC)cc4[C@@H]2C3=O)O1 [Rotenone]
- concentration range inhibiting complex I (complex I): nM range
- death (SH-SY5Y cells; trypan blue exclusion, after 7 days at 60 μM): 90%

Compound: CC[C@H]1/C=C/C=C/C[C@@H](C)[C@H](O)[C@@](C)(O)C(=O)[C@@H](C)[C@H](O)[C@@H](C)C(=O)[C@@H](C)[C@H](O)[C@@H](C)/C=C/C(=O)O[C@@H]2[C@H](C)[C@H](CC1)O[C@]1(CC[C@H](C)[C@H](C[C@@H](C)O)O1)[C@H]2C [oligomycin]
- concentration range killing SH-SY5Y cells (SH-SY5Y cells): high nM range

Compound: Antimycin A
- concentration range killing SH-SY5Y cells (SH-SY5Y cells): high nM range
